The Tmax is the time from dosing to the highest level. The half-life is the time needed for the level to fall by half in the phase considered. A word on the AUC(0-inf): it is the area under the concentration-time curve extrapolated to infinity. By AUC(0-t) is commonly meant exposure summed from dosing to a finite time, without extrapolation to infinity. Usually Cmax stands for the maximum level reached in the sampled fluid or tissue. Usually MRT last stands for a mean duration of stay, worked out from the concentration-time curve.

The values that follow come from publication PMC10005750 (Molecules, 2023).

A short description of data set [1]: Pharmacokinetic interaction study after oral administration of DPZ and TAD, alone or in combination, in rats. The settings on record: rat; for CL/F (apparent systemic clearance): tadalafil 0.3 mg/kg oral, n = 3, mean ± SD. The procedure: The rat plasma was stored at −70 °C. The plasma samples were thawed at room temperature and then centrifuged at 1800× g (4 °C) for 8 min before pipetting. Using a micropipette, 30 µL of the plasma sample was transferred into a polypropylene microtube, and 10 µL of IS working solution was added to each sample. Further, 0.2 mL of acetonitrile was then added and vortexed for 1 min. […] The supernatant was transferred to an analytical vessel, and 2 µL of the sample was injected into the LC-MS/MS system.
Rats were divided into three groups (n = 3): group 1, DPZ (3 mg/kg); group 2, TAD (0.3 mg/kg); and group 3, DPZ (3 mg/kg) combined with TAD (0.3 mg/kg). Animals were fasted overnight and allowed free access to water.
The peak plasma concentration, Cmax, and Tmax (the time to reach Cmax) for DPZ and TAD were calculated using individual plasma concentration–time profiles. […] The terminal half-life (T1/2) was calculated as ln 2/λz (λz is the elimination rate constant estimated by using the least-squares linear regression method of the terminal log-linear portion of the plasma concentration–time curve). The apparent clearance (CL/F) was calculated as CL/F = dose/AUC0-∞. The Mann–Whitney U test was used to determine the differences in the mean plasma concentration and PK profiles of DPZ and TAD between the single and combined administration groups. Statistical analysis was performed using SPSS Statistics (version 26.0; IBM SPSS Statistics for Windows, Armonk, NY, USA), and a p-value < 0.05 was considered statistically significant.

A short description of data set [2]: Plasma sample stability at low and high QC under storage and handling conditions. The procedure:
Standard stock solutions of DPZ, TAD, and LPZ (IS) were prepared in methanol at a concentration of 100 µg/mL and stored at −20 °C. Working solutions were prepared by diluting the stock solutions with 50% methanol. The concentration of DPZ and TAD ranged from 1 to 200 ng/mL. […] The IS working solution was prepared by diluting the stock solution with 50% methanol to a concentration of 20 ng/mL. All working stock solutions were prepared and stored at −20 °C until use. Calibration standards and QC samples of DPZ and TAD in rat plasma were diluted with the corresponding working solutions and blank rat plasma. Drug-free plasma, that is, control (blank) plasma, stored in a deep freezer, was completely thawed at room temperature before use. Ten percent spiking with working DPZ and TAD stock solutions was performed in blank plasma. The spiked QC samples were stored at −70 °C for stability studies.
Stability analyses of the stock solutions were performed at room temperature for 3 h and under refrigerated conditions (4 °C) for 14 days. The stability of the plasma analytes was tested for low and high QC under pre-specified conditions: room temperature for 5 h, refrigeration (4 °C) for 14 days, autosampler (10 °C) for 20 h, four cycles of freezing-thawing, and finally frozen conditions (−70 °C) for 28 days for long-term stability.

The mark [3] stands for this setting: male, Sprague-Dawley, plasma, po.
[4] abbreviates: male, Sprague-Dawley, plasma, po, 0.3 mg/kg.

In the case of `CN1CC(=O)N2[C@H](c3ccc4c(c3)OCO4)c3[nH]c4ccccc4c3C[C@@H]2C1=O` [Tadalafil, tadalafil], the time of peak concentration (Tmax) in data set [1] (setting [3]) and in data set [1] (setting [4]) was 0.5 h throughout. Also, the half-life in data set [1] (setting [3]) was 1.96 ± 0.212 h; in data set [1] (setting [4]), 1.52 ± 0.12 h. Moreover, in data set [1] (setting [4]), the total exposure AUC(0-inf) was 50.4 ± 23.6 ng·h/mL. Further, in data set [1] (setting [4]), the AUC(0-t) stood at 47 ± 24.4 ng·h/mL. The maximum concentration (Cmax) in data set [1] (setting [4]) came to 17.8 ± 6 ng/mL. Further, the MRT last in data set [1] (setting [4]) was 2.53 ± 0.214 h. Besides, the entries for the “CL/F (apparent systemic clearance)” value in data set [1] (alone) and in data set [1] (with DPZ 3 mg/kg) were 7.355 ± 4.516 L/h and 11.819 ± 9.852 L/h, respectively. Further, the “Plasma sample stability (Mean ± SD, %)” value in data set [2] (extracted rat plasma sample, autosampler (10 °C, 20 h), nominal 2 ng/mL) is 99.63 ± 6.03%; in data set [2] (extracted rat plasma sample, autosampler (10 °C, 20 h), nominal 160 ng/mL) it was 102.18 ± 3.98%; in data set [2] (rat plasma, freeze-thaw (4 cycles), nominal 2 ng/mL), 95.15 ± 2.69%; in data set [2] (rat plasma, freeze-thaw (4 cycles), nominal 160 ng/mL), 103.60 ± 1.55%; in data set [2] (rat plasma, refrigeration (4 °C, 14 days), nominal 2 ng/mL), 93.52 ± 3.03%; in data set [2] (rat plasma, refrigeration (4 °C, 14 days), nominal 160 ng/mL) it was 107.44 ± 5.73%. Besides, the “Plasma sample stability (Mean ± SD, %)” value in data set [2] (rat plasma, room temperature (5 h), nominal 2 ng/mL) is given as 95.75 ± 4.54%; in data set [2] (rat plasma, room temperature (5 h), nominal 160 ng/mL), 95.18 ± 0.41%; in data set [2] (rat plasma, −70 °C (28 days), nominal 2 ng/mL), 99.17 ± 3.88%; in data set [2] (rat plasma, −70 °C (28 days), nominal 160 ng/mL), 104.42 ± 4.78%. Moreover, the “stability in rat plasma under all examined conditions” value in data set [2] (rat, plasma) is listed as “stable”.
